Data on 47 compounds can be found in ChEMBL document CHEMBL3399965, “Application of cultured human mast cells (CHMC) for the design and structure-activity relationship of IgE-mediated mast cell activation inhibitors” (Bioorg Med Chem Lett, 2015).

The EC50 is the midpoint of the concentration-response curve.

Calls of active or inactive are those of the source. The calls are words filed in the database; no cut-off is given here.

The target of assay [1] is T1, Tyrosine-protein kinase SYK (Homo sapiens, UniProt P43405). Description: Inhibition of SYK in human mast cell cultures assessed as reduction in IgE-induced FCepsilonR1 mediated degranulation by tryptase release assay.
Assay [2] addresses T1, Tyrosine-protein kinase SYK. Description: Inhibition of SYK in human mast cell cultures assessed as reduction in ionomycin-induced calcium mobilization mediated degranulation by tryptase release assay. A general note: Calcium assays in cells follow changes in intracellular calcium, usually with a dye or a luminescent sensor.

On to `O=C(O)COc1ccc(Nc2ncc(F)c(Nc3ccc(OCC(=O)O)cc3)n2)cc1`, for which the inhibition entry in assay [1] and in assay [2] was “inactive” each time. Take `CCOc1ccc(Nc2nc(Nc3cccc(OCC(=O)NC)c3)ncc2F)cc1`: in assay [1], the EC50 was found to be 1100 nM. Besides, in assay [2], the inhibition entry was “inactive”. Take `N#CCOc1ccc(Nc2ncc(F)c(Nc3ccc(OCC#N)cc3)n2)cc1`: the EC50 in assay [1] was found to be 370 nM. Also, in assay [2], the inhibition entry was “inactive”. `Oc1cccc(Nc2ncc(Br)c(Nc3cccc(O)c3)n2)c1`: the EC50 in assay [1] was determined as 230 nM. In addition, the inhibition result in assay [2] is “inactive”. Regarding `Oc1cccc(Nc2cc(-c3ccccc3)nc(Nc3cccc(O)c3)n2)c1`, the 50% effective concentration (EC50) in assay [1] was 5800 nM. Also, in assay [2], the inhibition entry was “inactive”. The corresponding values for `CCOc1ccc(Nc2ccnc(Nc3ccc(OCC)cc3)n2)cc1` are 3380 nM and “inactive”. With `CNC(=O)COc1cccc(Nc2ncc(F)c(Nc3ccc(C(F)(F)F)cc3)n2)c1`, the EC50 in assay [1] came to 210 nM. For the same compound, the inhibition result in assay [2] was “inactive”. For the compound `Cn1nnnc1COc1ccc(Nc2ncc(F)c(Nc3ccc(OCc4nnnn4C)cc3)n2)cc1`, the EC50 in assay [1] was 760 nM. In addition, the inhibition entry in assay [2] is “inactive”. On to `CCOc1ccc(Nc2cc(Cl)nc(Nc3ccc(OCC)cc3)n2)cc1`, for which the inhibition result in assay [1] and in assay [2] was “inactive” each time. Take `COc1cccc(Nc2ncc(F)c(Nc3cccc(OC)c3)n2)c1`: in assay [1], the EC50 turned out to be 1730 nM. The inhibition entry in assay [2] was “inactive”. For `Oc1cccc(Nc2ncc(C(F)(F)F)c(Nc3cccc(O)c3)n2)c1`, the EC50 in assay [1] came to 270 nM. Moreover, the inhibition result in assay [2] was “inactive”. As for `COC(=O)COc1ccc(Nc2ncc(F)c(Nc3ccc(OCC(N)=O)cc3)n2)cc1`, the EC50 turned out to be 430 nM in assay [1] and 2.48 µM in assay [2]. As to `CCOC(=O)CNc1cccc(Nc2ncc(F)c(Nc3cccc(O)c3)n2)c1`, the EC50 in assay [1] was 330 nM. Further, the inhibition result in assay [2] is “inactive”. `NC(=O)COc1ccc(Nc2ncc(F)c(Nc3ccc(OCC(N)=O)cc3)n2)cc1`: the inhibition result in assay [1] and in assay [2] was “inactive” each time.

On to `Oc1cccc(Nc2ncc(-c3ccccc3)c(Nc3cccc(O)c3)n2)c1`, for which the 50% effective concentration (EC50) in assay [1] turned out to be 2900 nM. Moreover, the inhibition result in assay [2] is “inactive”. As to `Fc1cnc(Nc2ccc(N3CCOCC3)cc2)nc1Nc1ccc(N2CCOCC2)cc1`, the EC50 in assay [1] turned out to be 4140 nM. For the same compound, the inhibition entry in assay [2] is “inactive”.

Regarding `OCc1cccc(Nc2ncc(F)c(Nc3cccc(CO)c3)n2)c1`, the EC50 in assay [1] was found to be 2800 nM. Also, the inhibition entry in assay [2] is “inactive”. For `Nc1ccc(Nc2ncc(F)c(Nc3ccc(N)cc3)n2)cc1`, the EC50 in assay [1] is 4250 nM. For the same compound, the inhibition result in assay [2] was “inactive”. Regarding `N#Cc1cccc(Nc2ncc(F)c(Nc3cccc(C#N)c3)n2)c1`, the EC50 in assay [1] was found to be 950 nM. Moreover, in assay [2], the inhibition entry was “inactive”. For the compound `Fc1cnc(Nc2ccc(OCc3nnn[nH]3)cc2)nc1Nc1ccc(OCc2nnn[nH]2)cc1`, the inhibition result in assay [1] and in assay [2] was “inactive” each time. As to `OCCOc1cccc(Nc2ncc(F)c(Nc3cccc(OCCO)c3)n2)c1`, in assay [1], the EC50 is 930 nM. Moreover, in assay [2], the inhibition entry is “inactive”. As to `CC(C)(CO)c1ccc(Nc2nc(Nc3cccc(OCCO)c3)ncc2F)cc1`, in assay [1], the EC50 stood at 280 nM. Further, the inhibition entry in assay [2] was “inactive”. The like results for `OCCOc1cccc(Nc2nc(Nc3cccc(O)c3)ncc2F)c1` were, in that order, 670 nM and “inactive”. Take `CNC(=O)COc1cccc(Nc2ncc(F)c(Nc3ccc(N4CCOCC4)cc3)n2)c1`: the EC50 in assay [1] is 1290 nM. Moreover, the inhibition result in assay [2] is “inactive”.

In the case of `CCOc1ccc(Nc2ncc(F)c(Nc3ccc(OCC)cc3)n2)cc1`, in assay [2], the inhibition entry is “inactive”.

On to `N#CCOc1ccc(Nc2ncc(F)c(Nc3cccc(O)c3)n2)cc1`, for which the EC50 in assay [2] is 10 µM. Regarding `CC(C)Oc1ccc(Nc2ncc(F)c(Nc3ccc(OC(C)C)cc3)n2)cc1`, the EC50 in assay [1] worked out at 2200 nM. Moreover, the inhibition entry in assay [2] is “inactive”. For `Oc1ccc(Nc2ncc(F)c(Nc3ccc(O)cc3)n2)cc1`, in assay [1], the EC50 was 3400 nM. In assay [2], the inhibition entry is “inactive”.

For `CCOc1cccc(Nc2ncc(F)c(Nc3cccc(OCC)c3)n2)c1`, in assay [1], the EC50 amounted to 3100 nM. Further, the inhibition result in assay [2] was “inactive”. With `N#Cc1ccc(Nc2ncc(F)c(Nc3ccc(C#N)cc3)n2)cc1`, the EC50 in assay [1] was found to be 9830 nM. Further, the inhibition entry in assay [2] was “inactive”. On to `Fc1cnc(Nc2cccc(Cl)c2)nc1Nc1cccc(Cl)c1`, for which, in assay [1], the EC50 worked out at 5810 nM. Also, in assay [2], the inhibition result is “inactive”. Regarding `CNC(=O)COc1cccc(Nc2ncc(F)c(Nc3ccc(C(C)(C)C)cc3)n2)c1`, the EC50 in assay [1] was determined as 430 nM; in assay [2], 10 µM.

`COCCOc1cccc(Nc2ncc(F)c(Nc3cccc(OCCOC)c3)n2)c1`: the EC50 in assay [1] worked out at 4150 nM. In addition, the inhibition result in assay [2] was “inactive”. With `Fc1cnc(Nc2cccc(OC(F)(F)F)c2)nc1Nc1cccc(OC(F)(F)F)c1`, the EC50 in assay [1] was 5080 nM. In addition, in assay [2], the inhibition entry was “inactive”. For the compound `COC(=O)COc1ccc(Nc2ncc(F)c(Nc3ccc(OCC(=O)OC)cc3)n2)cc1`, the EC50 in assay [1] is 380 nM; in assay [2] it was 1.7 µM. On to `COC(=O)COc1ccc(Nc2nc(Nc3ccc(OCC(N)=O)cc3)ncc2F)cc1`, for which the EC50 amounted to 940 nM in assay [1] and 10 µM in assay [2]. Regarding `N#Cc1cnc(Nc2cccc(O)c2)nc1Nc1cccc(O)c1`, the EC50 in assay [1] worked out at 440 nM. In assay [2], the inhibition result is “inactive”. Take `Oc1cccc(Nc2ncc(F)c(Nc3cccc(O)c3)n2)c1`: the inhibition result in assay [2] is “inactive”. `Cc1cnc(Nc2cccc(O)c2)nc1Nc1cccc(O)c1`: the EC50 in assay [1] came to 900 nM. In addition, the inhibition result in assay [2] is “inactive”. Take `CNC(=O)CNc1cccc(Nc2ncc(F)c(Nc3cccc(O)c3)n2)c1`: the inhibition entry in assay [2] is “inactive”. With `Fc1cnc(Nc2ccc(C(F)(F)F)cc2)nc1Nc1ccc(C(F)(F)F)cc1`, the inhibition result in assay [1] and in assay [2] was “inactive” in each case. For `COc1ccc(Nc2ncc(F)c(Nc3ccc(OC)cc3)n2)cc1`, the EC50 in assay [1] turned out to be 1430 nM. Besides, the inhibition entry in assay [2] was “inactive”. With `CCOc1ccc(Nc2ncc(C)c(Nc3ccc(OCC)cc3)n2)cc1`, the inhibition result in assay [1] and in assay [2] was “inactive” in each case. Take `CNC(=O)COc1cccc(Nc2ncc(F)c(Nc3ccc(OC(F)(F)F)cc3)n2)c1`: the EC50 in assay [1] came to 400 nM. Further, the inhibition result in assay [2] is “inactive”. In the case of `NC(=O)COc1ccc(Nc2nc(Nc3cccc(O)c3)ncc2F)cc1`, the EC50 in assay [1] came to 1550 nM; in assay [2], 10 µM. In the case of `NC(=O)COc1ccc(Nc2ncc(F)c(Nc3cccc(O)c3)n2)cc1`, the EC50 is 530 nM in assay [1] and 10 µM in assay [2]. Consider `Oc1cccc(Nc2ccnc(Nc3cccc(O)c3)n2)c1`, for which the EC50 in assay [1] worked out at 500 nM. Further, in assay [2], the inhibition entry was “inactive”.
